In patent publication USRE47193E1, “Selectively substituted quinoline compounds” (EISAI R&D MANAGEMENT CO., LTD., priority 2013, dated 2019):
pIC50: −log10 of the molar value. Like-named read-outs stand apart in the source and are kept apart here.

Target: T1, mouse TLR7 (Mus musculus, UniProt P58681)
T1 sequence (P58681 27-1050): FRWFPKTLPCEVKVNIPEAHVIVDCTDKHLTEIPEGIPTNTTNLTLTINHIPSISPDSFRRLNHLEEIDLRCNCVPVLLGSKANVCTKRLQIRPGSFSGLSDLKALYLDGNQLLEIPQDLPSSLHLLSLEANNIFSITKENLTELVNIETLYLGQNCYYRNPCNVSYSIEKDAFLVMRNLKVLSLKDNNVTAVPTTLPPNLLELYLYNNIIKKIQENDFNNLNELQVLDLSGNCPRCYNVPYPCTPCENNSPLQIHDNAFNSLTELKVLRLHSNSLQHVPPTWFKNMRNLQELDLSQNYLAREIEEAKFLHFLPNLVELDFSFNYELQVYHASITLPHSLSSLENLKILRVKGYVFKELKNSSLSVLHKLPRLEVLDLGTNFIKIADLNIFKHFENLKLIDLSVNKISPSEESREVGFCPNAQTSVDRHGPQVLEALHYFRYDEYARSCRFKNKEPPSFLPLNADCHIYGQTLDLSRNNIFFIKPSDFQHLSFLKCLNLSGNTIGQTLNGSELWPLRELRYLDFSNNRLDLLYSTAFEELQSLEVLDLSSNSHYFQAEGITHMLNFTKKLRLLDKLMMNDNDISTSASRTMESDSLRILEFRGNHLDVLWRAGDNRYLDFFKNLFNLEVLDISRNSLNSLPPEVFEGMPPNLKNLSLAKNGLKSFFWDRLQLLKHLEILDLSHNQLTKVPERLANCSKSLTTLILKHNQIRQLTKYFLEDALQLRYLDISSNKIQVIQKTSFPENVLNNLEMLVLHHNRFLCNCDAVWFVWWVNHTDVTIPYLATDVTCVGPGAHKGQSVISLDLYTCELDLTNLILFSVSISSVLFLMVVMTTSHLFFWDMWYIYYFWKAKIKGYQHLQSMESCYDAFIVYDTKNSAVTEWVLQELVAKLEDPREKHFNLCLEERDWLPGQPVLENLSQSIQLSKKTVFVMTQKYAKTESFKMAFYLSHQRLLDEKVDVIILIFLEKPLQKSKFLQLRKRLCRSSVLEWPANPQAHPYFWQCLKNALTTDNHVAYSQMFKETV
Assay: HEK-293 mouse TLR7 NF-kappaB luciferase reporter assay (CL097)
Type: cell-based
Conditions: HEK-mTLR7, average of three tests
Protocol: Effects on mouse TLR7 were also compared. Cells were stimulated overnight with TLR7/8 agonist CL097 at pre-determined ED70-80: 3 ug/ml for HEK-hTLR7, 1.5 ug/ml for HEK-mTLR7 and 12 ug/ml for HEK-hTLR8, before reading luminescence intensity. Three tests were performed and IC50 value was determined using Graphpad Prism 6 nonlinear regression curve fit.
HEK-293 cells (ATCC) were engineered to stably express a NF-kappaB transcription factor inducible E-selectin (ELAM-1) luciferase reporter derived from the plasmid pGL3 (Promega) containing base pairs −2241 bp to −254 bp from the promoter of the human E-selectin gene (Accession No. NM_000450). These cells were then subsequently engineered to stably and individually express human TLR4, TLR7 or TLR9 full-length ORF cDNAs. Human TLR4 cDNA (Accession No. NM_138554) was cloned into pcDNA 3.0 expression vector (Invitrogen). TLR4 transfected cells were also engineered to express human MD-2 co-receptor [MD-2 cDNA (Accession No. NM_015364) was cloned into the pEF-BOS vector] and were supplemented with 10 nM soluble CD14 (R&D Systems) in the media to optimize LPS responsiveness. Human TLR9 cDNA (Accession No. NM_017442) was cloned into the pBluescript II KS vector (Agilent). Human TLR7 cDNA (Accession No. NM_016562) was obtained from OriGene. […]

Row | Structure (SMILES) | pIC50 (read-out: IC50 average) | pIC50 (IC50 average)
1 | CCN(CCO)CCCC(C)Nc1ccnc2cc(Cl)ccc12 (centres unmarked) [HCQ, hydroxychloroquine, reference compound] | 4.85 | 
2 | C[C@@H]1CN(c2ccc(C#N)c3ncccc23)C[C@H](C(=O)N[C@H]2CNC[C@H]2F)O1.Cl [ER-899742, (2R,6R)-4-(8-cyanoquinolin-5-yl)-N-[(3S,4R)-4-fluoropyrrolidin-3-yl]-6-methylmorpholine-2-carboxamide hydrochloride] |  | 7.15
